Laboratory results taken from US20080009511A1, “Cancer treatment with compounds inhibiting PKC alpha” (priority 2004, published 2008).

Columns and labels:
[1] = system: Jurkat cells (a human acute T-cell leukemia cell line); assay: Cell viability assay (trypan blue dye exclusion), viable cells counted at day 6; type: cell-based; details: 10 micromoles; for Treated (cell number × 10^5): about 4×10^4 cells seeded, untreated 8.8 ± 0.4; for % inhibiton: growth vs untreated
Method: (§1) The following cancer cells were maintained in Dulbecco's modified Eagle medium (DMEM) supplemented with 10 percent bovine calf serum. Cells were seeded for 24 hours. Then they were treated with PKC inhibitors or left untreated. The cells were then collected periodically and evaluated using trypan blue dye exclusion to assess viability using the method described by C Y Chen, et al., in J. Biol. Chem. 273:16700-16709. Cultures containing about 4×10^4 cells were treated with 5 micromoles of Gö7874 (except that PC3 prostate cancer cells were treated with 10 micromoles) and the viable cells were counted at day 6. […] Cultures containing about 4×10^4 cells were treated with or without 10 micromoles of Gö6850 and the viable cells were counted at day 6. […] Cultures containing about 4×10^4 cells were treated with or without 10 micromoles of NGIC-I and the viable cells were counted at day 6. […] Cultures containing about 4×10^4 cells were treated with or without 10 micromoles of Ro31-7549 and the viable cells were counted at day 6. […] Cultures containing about 4×10^4 cells were treated with or without 10 micromoles of Ro31-8220 and the viable cells were counted at day 6. […] Cultures containing about 4×10^4 cells were treated with or without 10 micromoles of Ro31-8425 and the viable cells were counted at day 6. […] Cultures containing about 4×10^4 cells were treated with or without 10 micromoles of Ro31-0432 and the viable cells were counted at day 6.

[2] = system: A431 human epidermoid carcinoma cells; assay: as above; type: cell-based; details: 10 micromoles; for Treated (cell number × 10^5): about 4×10^4 cells seeded, untreated 5.4 ± 0.4; for % inhibiton: growth vs untreated
Method: as §1

[3] = system: HT29 human colon cancer cells; assay: as above; type: cell-based; details: 10 micromoles; for Treated (cell number × 10^5): about 4×10^4 cells seeded, untreated 3.8 ± 0.4; for % inhibiton: growth vs untreated
Method: as §1

U251 human glioma cells = assay: as above; type: cell-based; details: 10 micromoles; for Treated (cell number × 10^5): about 4×10^4 cells seeded, untreated 9.6 ± 0.5; for % inhibiton: growth vs untreated
Method: as §1

[4] = system: NBT-II human bladder cancer cells; assay: as above; type: cell-based; details: 10 micromoles; for Treated (cell number × 10^5): about 4×10^4 cells seeded, untreated 2.9 ± 0.4; for % inhibiton: growth vs untreated
Method: as §1

[5] = system: AGS human gastric cancer cells; assay: as above; type: cell-based; details: 10 micromoles; for Treated (cell number × 10^5): about 4×10^4 cells seeded, untreated 2.4 ± 0.3; for % inhibiton: growth vs untreated
Method: as §1

[6] = system: MDA-MB-468 human breast cancer cells; assay: as above; type: cell-based; details: 10 micromoles; for % inhibiton: growth vs untreated
Method: as §1

[7] = system: Hela human cervical cancer cells; assay: as above; type: cell-based; details: 10 micromoles; for Treated (cell number × 10^5): about 4×10^4 cells seeded, untreated 3.4 ± 0.4; for % inhibiton: growth vs untreated
Method: as §1

[8] = system: HepG2 human liver cancer cells; assay: as above; type: cell-based; details: 10 micromoles; for Treated (cell number × 10^5): about 4×10^4 cells seeded, untreated 4.2 ± 0.4; for % inhibiton: growth vs untreated
Method: as §1

[9] = system: PANC-1 human pancreatic carcinoma cells; assay: as above; type: cell-based; details: 10 micromoles; for Treated (cell number × 10^5): about 4×10^4 cells seeded, untreated 2.1 ± 0.3; for % inhibiton: growth vs untreated
Method: as §1

[10] = system: PC3 human prostate cancer cells; assay: as above; type: cell-based; details: 10 micromoles; for Treated (cell number × 10^5): about 4×10^4 cells seeded, untreated 7.1 ± 0.3; for % inhibiton: growth vs untreated
Method: as §1

[11] = system: H460 human lung cancer cells; assay: as above; type: cell-based; details: 10 micromoles; for Treated (cell number × 10^5): about 4×10^4 cells seeded, untreated 2.4 ± 0.2; for % inhibiton: growth vs untreated
Method: as §1

human cancer cells = assay: Cell viability assay, summary over the panel of cancer cells; type: cell-based; details: 10 micromoles; day 6; cell lines not named as going to apoptosis
Method: The following cancer cells were maintained in Dulbecco's modified Eagle medium (DMEM) supplemented with 10 percent bovine calf serum. Cells were seeded for 24 hours. Then they were treated with PKC inhibitors or left untreated. The cells were then collected periodically and evaluated using trypan blue dye exclusion to assess viability using the method described by C Y Chen, et al., in J. Biol. Chem. 273:16700-16709. Cultures containing about 4×10^4 cells were treated with or without 10 micromoles of Gö6850 and the viable cells were counted at day 6. […] Cultures containing about 4×10^4 cells were treated with or without 10 micromoles of NGIC-I and the viable cells were counted at day 6. […] Cultures containing about 4×10^4 cells were treated with or without 10 micromoles of Ro31-7549 and the viable cells were counted at day 6. […] Cultures containing about 4×10^4 cells were treated with or without 10 micromoles of Ro31-8220 and the viable cells were counted at day 6. […] Cultures containing about 4×10^4 cells were treated with or without 10 micromoles of Ro31-8425 and the viable cells were counted at day 6. […] Cultures containing about 4×10^4 cells were treated with or without 10 micromoles of Ro31-0432 and the viable cells were counted at day 6.

KB oral cancer cells = assay: Cell viability assay (trypan blue dye exclusion), viable cells counted at day 6; type: cell-based, human; details: 10 micromoles; for Treated (cell number × 10^5): about 4×10^4 cells seeded, untreated 3.8 ± 0.4; for % inhibiton: growth vs untreated
Method: as §1

Row | SMILES | Treated (cell number × 10^5) [1] | % inhibiton [1] | Treated (cell number × 10^5) [2] | % inhibiton [2] | Treated (cell number × 10^5) [3] | % inhibiton [3] | Treated (cell number × 10^5) (U251 human glioma cells) | % inhibiton (U251 human glioma cells) | Treated (cell number × 10^5) [4] | % inhibiton [4] | Treated (cell number × 10^5) [5] | % inhibiton [5] | % inhibiton [6] | Treated (cell number × 10^5) [7] | % inhibiton [7] | Treated (cell number × 10^5) [8] | % inhibiton [8] | Treated (cell number × 10^5) [9] | % inhibiton [9] | Treated (cell number × 10^5) [10] | further results
1 | N#CCCn1c2ccccc2c2c3c(c4c5ccccc5[nH]c4c21)C(=O)NC3 [NGIC-I, 12-propanenitrile,5,6,7,13-tetrahydro-5-oxo-12H-Indolo[2,3-a]pyrrolo[3,4-c]carbazole] | 0.2 × 10^5 | * (indicates the inhibitor causes significant cell death, and cell number is less than originally seeded cell number.) | 2.7 × 10^5 | 49% | 3.2 × 10^5 | 15% | 1.6 × 10^5 | 82% | 0.9 × 10^5 | 73% | 1.7 × 10^5 | 30% | 78% | 0.3 × 10^5 | * (indicates the inhibitor causes significant cell death, and cell number is less than originally seeded cell number.) | 0.9 × 10^5 | 78% | 1.2 × 10^5 | 44% | 3.7 × 10^5 | originally seeded cells survived [1]: About 50%; originally seeded cells survived [7]: 75%; % inhibiton [10]: 48%; Treated (cell number × 10^5) [11]: 1.6 × 10^5; % inhibiton [11]: 32%; inhibition of growth in contrast to untreated cells, range over the other treated cancer cells (human cancer cells): 25-82%; cells that went to apoptosis upon treatment (KB oral cancer cells): all; Treated (cell number × 10^5) (KB oral cancer cells): 0 × 10^5; % inhibiton (KB oral cancer cells): * (indicates the inhibitor causes significant cell death, and cell number is less than originally seeded cell number.)
2 | CN(C)CCCn1cc(C2=C(c3c[nH]c4ccccc34)C(=O)NC2=O)c2ccccc21 [Gö6850, 2-[1-(3-Dimethylaminopropyl)-1H-indol-3-yl]-3-(1H-indol-3-yl)-maleimide] | 4.1 × 10^5 | 53% | 4.1 × 10^5 | 24% | 2.4 × 10^5 | 22% | 7.2 × 10^5 | 23% | 1.3 × 10^5 | 57% | 1.5 × 10^5 | 34% | 25% | 0.3 × 10^5 | * (indicates the inhibitor causes significant cell death, and cell number is less than originally seeded cell number.) | 2.4 × 10^5 | 41% | 1.4 × 10^5 | 30% | 2.8 × 10^5 | Treated (cell number × 10^5) ([6]; about 4×10^4 cells seeded, untreated 6.1 ± 0.4): 4.6 ± 0.2 × 10^5; cell numbers of treated cells [7]: significantly reduced cell numbers; % inhibiton [10]: 60%; Treated (cell number × 10^5) [11]: 1.6 × 10^5; % inhibiton [11]: 31%; inhibition of growth in contrast to untreated cells, range over the other treated cancer cells (human cancer cells): 25-60%; Treated (cell number × 10^5) (KB oral cancer cells): 1.7 × 10^5; % inhibiton (KB oral cancer cells): 55%
